# In US8952024B2, “Herbicidal pyrimidone derivatives” (E I du Pont de Nemours and Company, priority 2009, dated 2015):
# What was measured:
# Assay in all cases: Test B pre-/postemergence plant response
# Type in all cases: in vivo
# wild oat (Avena fatua) = tested on: wild oat (Avena fatua)
# Outline: (§1)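 Pre-em in loam/sand; post-em at 1–4 leaf (2–18 cm) in peat mix. Solvent + surfactant formulation. Greenhouse 13–15 d; visual % control vs untreated, 0–100.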
# [1] = tested on: large crabgrass (Digitaria sanguinalis)
# Outline: as §1
# [2] = tested on: morningglory (Ipomoea coccinea)
# Outline: as §1
# [3] = tested on: green foxtail (Setaria viridis)
# Outline: as §1
# [4] = tested on: blackgrass (Alopecurus myosuroides)
# Outline: as §1
# [5] = tested on: downy bromegrass (Bromus tectorum)
# Outline: as §1
# [6] = tested on: woolly cupgrass (Eriochloa villosa)
# Outline: as §1
# [7] = tested on: yellow nutsedge (Cyperus esculentus)
# Outline: as §1
# [8] = tested on: johnsongrass (Sorghum halepense)
# Outline: as §1
# soybean (Glycine max) = tested on: soybean (Glycine max)
# Outline: as §1
# [9] = tested on: giant foxtail (Setaria faberii)
# Outline: as §1
# [10] = tested on: velvetleaf (Abutilon theophrasti)
# Outline: as §1
# [11] = tested on: goosegrass (Eleusine indica)
# Outline: as §1
# kochia (Kochia scoparia) = tested on: kochia (Kochia scoparia)
# Outline: as §1
# [12] = tested on: Surinam grass (Brachiaria decumbens)
# Outline: as §1
# corn (Zea mays) = tested on: corn (Zea mays)
# Outline: as §1
# [13] = tested on: cocklebur (Xanthium strumarium)
# Outline: as §1
# [14] = 31 g ai/ha, postemergence, scale 0 to 100, 0 is no effect, 100 is complete control
# [15] = Postemergence, 125 g ai/ha, visual rating after 13 to 15 days, scale 0 (no effect) to 100 (complete control)
# [16] = Postemergence, 250 g ai/ha, scale 0 to 100 (0 no effect, 100 complete control)
# [17] = Preemergence, 31 g ai/ha, scale 0 to 100 (0 no effect, 100 complete control)
# [18] = Preemergence, 62 g ai/ha, scale 0 to 100, 0 no effect, 100 complete control
# [19] = Preemergence, 125 g ai/ha, scale 0 to 100, 0 no effect, 100 complete control
# [20] = 62 g ai/ha, postemergence, 0 is no effect, 100 is complete control, 13 to 15 days
# [21] = 250 g ai/ha, Preemergence, 0 to 100 scale
smiles,measurement,setting,value
CCCc1ncc(C(=O)C2=C(O)CCCC2=O)c(=O)n1CCC [Compound 72],"Plant response rating, Oat, Wild",wild oat (Avena fatua); [14],0
same,"Plant response rating, Oat, Wild",wild oat (Avena fatua); [15],30
same,"Plant response rating, Oat, Wild",wild oat (Avena fatua); [16],40
same,"Plant response rating, Oat, Wild",wild oat (Avena fatua); [17],0
same,"Plant response rating, Oat, Wild",wild oat (Avena fatua); [18],0
same,"Plant response rating, Oat, Wild",wild oat (Avena fatua); [19],0
same,"Plant response rating, Crabgrass, Large",[1]; [14],75
same,"Crabgrass, Large plant response rating (0 to 100 scale)",[1]; [20],80
same,"Plant response rating, Crabgrass, Large",[1]; [21],100
same,"Plant response rating, Crabgrass, Large",[1]; [15],85
same,"Plant response rating, Crabgrass, Large",[1]; [16],90
same,"Plant response rating, Crabgrass, Large",[1]; [17],95
same,"Plant response rating, Crabgrass, Large",[1]; [18],100
same,"Plant response rating, Crabgrass, Large",[1]; [19],100
same,"Plant response rating, Morningglory",[2]; [14],20
same,Morningglory plant response rating (0 to 100 scale),[2]; [20],85
same,"Plant response rating, Morningglory",[2]; [15],90
same,"Plant response rating, Morningglory",[2]; [16],90
same,"Plant response rating, Morningglory",[2]; [17],0
same,"Plant response rating, Morningglory",[2]; [18],55
same,"Plant response rating, Morningglory",[2]; [19],65
same,"Plant response rating, Foxtail, Green",[3]; [14],10
same,"Foxtail, Green plant response rating (0 to 100 scale)",[3]; [20],70
same,"Plant response rating, Foxtail, Green",[3]; [21],90
same,"Plant response rating, Foxtail, Green",[3]; [15],90
same,"Plant response rating, Foxtail, Green",[3]; [16],90
same,"Plant response rating, Foxtail, Green",[3]; [17],0
same,"Plant response rating, Foxtail, Green",[3]; [18],0
same,"Plant response rating, Foxtail, Green",[3]; [19],50
same,"Plant response rating, Blackgrass",[4]; [14],0
same,Blackgrass plant response rating (0 to 100 scale),[4]; [20],0
same,"Plant response rating, Blackgrass",[4]; [21],5
same,"Plant response rating, Blackgrass",[4]; [15],0
same,"Plant response rating, Blackgrass",[4]; [16],0
same,"Plant response rating, Blackgrass",[4]; [17],0
same,"Plant response rating, Blackgrass",[4]; [18],0
same,"Plant response rating, Blackgrass",[4]; [19],0
same,"Plant response rating, Bromegrass, Downy",[5]; [14],0
same,"Bromegrass, Downy plant response rating (0 to 100 scale)",[5]; [20],0
same,"Plant response rating, Bromegrass, Downy",[5]; [21],0
same,"Plant response rating, Bromegrass, Downy",[5]; [15],0
same,"Plant response rating, Bromegrass, Downy",[5]; [16],20
same,"Plant response rating, Bromegrass, Downy",[5]; [17],0
same,"Plant response rating, Bromegrass, Downy",[5]; [18],0
same,"Plant response rating, Bromegrass, Downy",[5]; [19],0
same,"Plant response rating, Cupgrass, Woolly",[6]; [14],45
same,"Cupgrass, Woolly plant response rating (0 to 100 scale)",[6]; [20],45
same,"Plant response rating, Cupgrass, Woolly",[6]; [21],65
same,"Plant response rating, Cupgrass, Woolly",[6]; [15],50
same,"Plant response rating, Cupgrass, Woolly",[6]; [16],50
same,"Plant response rating, Cupgrass, Woolly",[6]; [17],0
same,"Plant response rating, Cupgrass, Woolly",[6]; [18],0
same,"Plant response rating, Cupgrass, Woolly",[6]; [19],45
same,"Plant response rating, Nutsedge, Yellow",[7]; [14],35
same,"Nutsedge, Yellow plant response rating (0 to 100 scale)",[7]; [20],65
same,"Plant response rating, Nutsedge, Yellow",[7]; [15],65
same,"Plant response rating, Nutsedge, Yellow",[7]; [16],75
same,"Plant response rating, Nutsedge, Yellow",[7]; [17],40
same,"Plant response rating, Nutsedge, Yellow",[7]; [18],70
same,"Plant response rating, Nutsedge, Yellow",[7]; [19],75
same,"Plant response rating, Johnsongrass",[8]; [14],0
same,Johnsongrass plant response rating (0 to 100 scale),[8]; [20],10
same,"Plant response rating, Johnsongrass",[8]; [21],10
same,"Plant response rating, Johnsongrass",[8]; [15],40
same,"Plant response rating, Johnsongrass",[8]; [16],45
same,"Plant response rating, Johnsongrass",[8]; [17],0
same,"Plant response rating, Johnsongrass",[8]; [18],0
same,"Plant response rating, Johnsongrass",[8]; [19],0
same,"Plant response rating, Soybean",soybean (Glycine max); [14],80
same,Soybean plant response rating (0 to 100 scale),soybean (Glycine max); [20],80
same,"Plant response rating, Soybean",soybean (Glycine max); [15],85
same,"Plant response rating, Soybean",soybean (Glycine max); [16],95
same,"Plant response rating, Foxtail, Giant",[9]; [14],65
same,"Foxtail, Giant plant response rating (0 to 100 scale)",[9]; [20],70
same,"Plant response rating, Foxtail, Giant",[9]; [21],65
same,"Plant response rating, Foxtail, Giant",[9]; [15],75
same,"Plant response rating, Foxtail, Giant",[9]; [16],80
same,"Plant response rating, Foxtail, Giant",[9]; [17],0
same,"Plant response rating, Foxtail, Giant",[9]; [18],5
same,"Plant response rating, Foxtail, Giant",[9]; [19],10
same,"Plant response rating, Velvetleaf",[10]; [14],98
same,Velvetleaf plant response rating (0 to 100 scale),[10]; [20],100
same,"Plant response rating, Velvetleaf",[10]; [15],100
same,"Plant response rating, Velvetleaf",[10]; [16],100
same,"Plant response rating, Velvetleaf",[10]; [17],98
same,"Plant response rating, Velvetleaf",[10]; [18],100
same,"Plant response rating, Velvetleaf",[10]; [19],100
same,"Plant response rating, Goosegrass",[11]; [14],60
same,Goosegrass plant response rating (0 to 100 scale),[11]; [20],65
same,"Plant response rating, Goosegrass",[11]; [21],100
same,"Plant response rating, Goosegrass",[11]; [15],65
same,"Plant response rating, Goosegrass",[11]; [16],70
same,"Plant response rating, Goosegrass",[11]; [17],60
same,"Plant response rating, Goosegrass",[11]; [18],98
same,"Plant response rating, Goosegrass",[11]; [19],100
same,"Plant response rating, Kochia",kochia (Kochia scoparia); [14],75
same,Kochia plant response rating (0 to 100 scale),kochia (Kochia scoparia); [20],85
same,"Plant response rating, Kochia",kochia (Kochia scoparia); [21],85
same,"Plant response rating, Kochia",kochia (Kochia scoparia); [15],90
same,"Plant response rating, Kochia",kochia (Kochia scoparia); [16],90
same,"Plant response rating, Kochia",kochia (Kochia scoparia); [17],45
same,"Plant response rating, Kochia",kochia (Kochia scoparia); [18],75
same,"Plant response rating, Kochia",kochia (Kochia scoparia); [19],85
same,"Plant response rating, Surinam Grass",[12]; [14],75
same,Surinam Grass plant response rating (0 to 100 scale),[12]; [20],80
same,"Plant response rating, Surinam Grass",[12]; [15],80
same,"Plant response rating, Surinam Grass",[12]; [16],100
same,"Plant response rating, Surinam Grass",[12]; [17],45
same,"Plant response rating, Surinam Grass",[12]; [18],75
same,"Plant response rating, Surinam Grass",[12]; [19],75
same,"Plant response rating, Corn",corn (Zea mays); [14],0
same,Corn plant response rating (0 to 100 scale),corn (Zea mays); [20],0
same,"Plant response rating, Corn",corn (Zea mays); [21],0
same,"Plant response rating, Corn",corn (Zea mays); [15],5
same,"Plant response rating, Corn",corn (Zea mays); [16],10
same,"Plant response rating, Corn",corn (Zea mays); [17],0
same,"Plant response rating, Corn",corn (Zea mays); [18],0
same,"Plant response rating, Corn",corn (Zea mays); [19],0
same,"Plant response rating, Cocklebur",[13]; [14],75
same,Cocklebur plant response rating (0 to 100 scale),[13]; [20],80
same,"Plant response rating, Cocklebur",[13]; [21],80
same,"Plant response rating, Cocklebur",[13]; [15],90
same,"Plant response rating, Cocklebur",[13]; [16],95
same,"Plant response rating, Cocklebur",[13]; [17],10
same,"Plant response rating, Cocklebur",[13]; [18],50
same,"Plant response rating, Cocklebur",[13]; [19],70
